# In patent publication US20050208496A1, “Methods of testing for bronchial asthma or chronic obstructive pulmonary disease” (Genox Research, Inc., priority 2002, published 2005):
# Tested on: respiratory epithelial cells
# Conditions: lot 1, Day 7, AI method
substance,measurement,value
"IL-13: human IL-13 (Peprotech, Inc.) added to the medium at 50 ng/mL to stimulate respiratory epithelial cells",AI700705 (46658_at) expression fold change,2.4 fold
same,AI809925 (53010_at) expression fold change,3.6 fold
same,AI821796 (57694_at) expression fold change,3 fold
same,AI989346 (52327_s_at) expression fold change,2.7 fold
same,AKAP2 (48035_at) expression fold change,4.4 fold
same,"AKAP10 (36632_at) expression, fold change upon IL-13 stimulation",2 fold
same,"ALOX15 (34636_at) expression, fold change upon IL-13 stimulation",72.3 fold
same,ARHE (35803_at) expression fold change upon IL-13 stimulation,2.3 fold
same,ARL7 (57151_at) expression fold change,3.1 fold
same,AW019985 (48826_s_at) expression fold change,6.9 fold
same,"AXL (38433_at) expression, fold change upon IL-13 stimulation",2.2 fold
same,"BIG2 (34484_at) expression, fold change upon IL-13 stimulation",2.2 fold
same,"BST2 (39061_at) expression, fold change upon IL-13 stimulation",3 fold
same,"C1S (40496_at) expression, fold change upon IL-13 stimulation",4.8 fold
same,C21orf11 (58957_at) expression fold change,2.1 fold
same,CCND3 (1795_g_at) expression fold change upon IL-13 stimulation,2.1 fold
same,CDH6 (57421_at) expression fold change,3.8 fold
same,CDH26 (46916_at) expression fold change,8.6 fold
same,"CH25H (32363_at) expression, fold change upon IL-13 stimulation",15.1 fold
same,"CLDN5 (38995_at) expression, fold change upon IL-13 stimulation",2.9 fold
same,"CTSC (133_at) expression, fold change upon IL-13 stimulation",2.8 fold
same,CXCL16 (44095_at) expression fold change,4 fold
same,"DBCCR1 (40292_at) expression, fold change upon IL-13 stimulation",3.1 fold
same,"DD96 (31610_at) expression, fold change upon IL-13 stimulation",3.3 fold
same,"DDIT3 (39420_at) expression, fold change upon IL-13 stimulation",5.2 fold
same,"DKFZP564O0823 (41402_at) expression, fold change upon IL-13 stimulation",3.9 fold
same,DKFZP566J091 (57197_at) expression fold change,11.3 fold
same,DNAJA1 (276_at) expression fold change upon IL-13 stimulation,2.5 fold
same,DPP4 (34823_at) expression fold change upon IL-13 stimulation,3.2 fold
same,DPYD (38220_at) expression fold change upon IL-13 stimulation,2.5 fold
same,EMILIN-2 (51628_at) expression fold change,3.1 fold
same,FADS3 (43394_s_at) expression fold change,4.5 fold
same,FETUB (32620_at) expression fold change,8.4 fold
same,FETUB (33101_g_at) expression fold change,9 fold
same,FLJ10261 (43366_at) expression fold change,10.6 fold
same,FLJ10261 (43963_at) expression fold change,8.7 fold
same,FLJ14281 (50209_at) expression fold change,2.5 fold
same,FLJ20420 (46233_at) expression fold change,2.1 fold
same,FLJ22332 (56959_at) expression fold change,3.4 fold
same,"G1P3 (1358_s_at) expression, fold change upon IL-13 stimulation",2.5 fold
same,GADD45G (39154_at) expression fold change upon IL-13 stimulation,4.3 fold
same,H11 (56474_at) expression fold change,2.3 fold
same,"HLA-F (37420_i_at) expression, fold change upon IL-13 stimulation",3.3 fold
same,"HLA-F (37421_f_at) expression, fold change upon IL-13 stimulation",2.4 fold
same,HLA-F (49203_f_at) expression fold change,3.4 fold
same,"HLALS (34427_g_at) expression, fold change upon IL-13 stimulation",2 fold
same,HS3ST1 (41556_s_at) expression fold change upon IL-13 stimulation,3.8 fold
same,HSD17B2 (38178_at) expression fold change upon IL-13 stimulation,3.1 fold
same,HSPA5 (47634_at) expression fold change,2.7 fold
same,"HUMRTVLH3 (34702_f_at) expression, fold change upon IL-13 stimulation",6.1 fold
same,"Human hbc647 mRNA sequence (34759_at) expression, fold change upon IL-13 stimulation",2.5 fold
same,ICAMt (32640_at) expression fold change upon IL-13 stimulation,3.1 fold
same,"IFI27 (425_at) expression, fold change upon IL-13 stimulation",2.1 fold
same,"IFI30 (39728_at) expression, fold change upon IL-13 stimulation",2.1 fold
same,"IFIT4 (38584_at) expression, fold change upon IL-13 stimulation",4.6 fold
same,IL13RA2 (1016_s_at) expression fold change upon IL-13 stimulation,4.8 fold
same,IRLB (32961_at) expression fold change,2.5 fold
same,"ISG15 (1107_s_at) expression, fold change upon IL-13 stimulation",3 fold
same,"KIAA0469 (37230_at) expression, fold change upon IL-13 stimulation",2 fold
same,"KIAA0537 (33787_at) expression, fold change upon IL-13 stimulation",8.8 fold
same,"KIAA1199 (36070_at) expression, fold change upon IL-13 stimulation",4.3 fold
same,KRT16 (601_s_at) expression fold change,3.6 fold
same,LOC57118 (51085_at) expression fold change,2.2 fold
same,"LOC64116 (40456_at) expression, fold change upon IL-13 stimulation",2.8 fold
same,"LRPAP1 (36194_at) expression, fold change upon IL-13 stimulation",2.2 fold
same,MAT2A (32571_at) expression fold change upon IL-13 stimulation,2.5 fold
same,MDA5 (51920_at) expression fold change,3.8 fold
same,MED6 (35432_at) expression fold change,2.7 fold
same,"MET (1609_g_at) expression, fold change upon IL-13 stimulation",2.6 fold
same,"MET (1812_s_at) expression, fold change upon IL-13 stimulation",5 fold
same,"MET (35684_at) expression, fold change upon IL-13 stimulation",3.4 fold
same,MFHAS1 (50388_at) expression fold change,2.3 fold
same,"MICB (35937_at) expression, fold change upon IL-13 stimulation",3.5 fold
same,"MKP-L (38272_at) expression, fold change upon IL-13 stimulation",2.9 fold
same,"MMP7 (668_s_at) expression, fold change upon IL-13 stimulation",2.8 fold
same,"MP1 (34839_at) expression, fold change upon IL-13 stimulation",2 fold
same,MXI (37014_at) expression fold change,2.9 fold
same,NCF2 (41038_at) expression fold change,4 fold
same,NFIL3 (37544_at) expression fold change,2.5 fold
same,NK4 (39119_s_at) expression fold change upon IL-13 stimulation,6 fold
same,NOS2A (1948_f_at) expression fold change upon IL-13 stimulation,9.4 fold
same,NOS2A (48918_at) expression fold change,8.3 fold
same,"NTRK1 (36805_s_at) expression, fold change upon IL-13 stimulation",8.7 fold
same,"OAF (39695_at) expression, fold change upon IL-13 stimulation",4.3 fold
same,OAS1 (38389_at) expression fold change upon IL-13 stimulation,2.4 fold
same,OSF-2 (1451_s_at) expression fold change upon IL-13 stimulation,25.4 fold
same,"PAK2 (1560_g_at) expression, fold change upon IL-13 stimulation",2.4 fold
same,"PITPNB (353_at) expression, fold change upon IL-13 stimulation",2.8 fold
same,"PITPNB (35017_f_at) expression, fold change upon IL-13 stimulation",2.3 fold
same,"PKD2 (38120_at) expression, fold change upon IL-13 stimulation",2.7 fold
same,PLS1 (39951_at) expression fold change,5.4 fold
same,PMCH (32005_at) expression fold change,11 fold
same,PSMB9 (38287_at) expression fold change upon IL-13 stimulation,2.6 fold
same,PVRL2 (50320_g_at) expression fold change,2.2 fold
same,RASGRP1 (33291_at) expression fold change,2.8 fold
same,RIG-1 (59215_at) expression fold change,2.8 fold
same,"SECTM1 (41045_at) expression, fold change upon IL-13 stimulation",4.4 fold
same,SERPINB2 (37185_at) expression fold change,5.3 fold
same,SERPINB4 (1549_s_at) expression fold change,7.8 fold
same,SERPINB6 (34789_at) expression fold change,2 fold
same,SIAT1 (41352_at) expression fold change upon IL-13 stimulation,8.7 fold
same,"SLC26A4, pendrin (36376_at) expression fold change",20.1 fold
same,SPHK1 (51923_at) expression fold change,2.1 fold
same,"SSI-1 (41592_at) expression, fold change upon IL-13 stimulation",6.1 fold
same,STAT1 (32859_at) expression fold change,2.1 fold
same,TGFB2 (1262_s_at) expression fold change upon IL-13 stimulation,3.2 fold
